{
  "source": "the supplement of paper PMC10307832",
  "test_in_all_cases": "relative viability (nuclei count vs DMSO), 5 days (fraction); higher = more cells survive",
  "key": {"Tanzisertib + Pictilisib": {"compound": "O[C@H]1CC[C@H](Nc2ncc3nc(Nc4c(F)cc(F)cc4F)n([C@H]4CCOC4)c3n2)CC1 [Tanzisertib] + CS(=O)(=O)N1CCN(Cc2cc3nc(-c4cccc5[nH]ncc45)nc(N4CCOCC4)c3s2)CC1 [Pictilisib] (partner 1 µM)", "summary_of_the_method": "(§1)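 Nuclei were stained with Hoechst during a one-step fixation (final 0.05% Triton X-100, 1% formaldehyde, 1 ug/ml Hoechst) carried out 5 days after dosing, then counted on 4× images. The cells, lung cancer lines in 1536-well plates, had been dosed by pin tool the day after seeding with one drug alone or a fixed anchor-drug dose plus five library-drug doses (not always all listed) in √10 steps. Relative viability is the nuclei count in treated wells divided by that in vehicle wells, and each value is the median of duplicate plates.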"}, "[1]": {"compound": "C[C@@H](N)c1ccc(C(=O)Nc2ccnc3[nH]ccc23)cc1 + Nc1ncn([C@H]2C[C@H](O)[C@@H](CO)O2)c(=O)n1 [Decitabine] (partner 2 µM)", "summary_of_the_method": "as §1"}, "[2]": {"compound": "C[C@@H](N)c1ccc(C(=O)Nc2ccnc3[nH]ccc23)cc1 + CCNC(=O)c1noc(-c2cc(C(C)C)c(O)cc2O)c1-c1ccc(CN2CCOCC2)cc1 [Luminespib] (partner 0.01 µM)", "summary_of_the_method": "as §1"}, "Tanzisertib + Vorinostat": {"compound": "O[C@H]1CC[C@H](Nc2ncc3nc(Nc4c(F)cc(F)cc4F)n([C@H]4CCOC4)c3n2)CC1 [Tanzisertib] + O=C(CCCCCCC(=O)Nc1ccccc1)NO [Vorinostat] (partner 1 µM)", "summary_of_the_method": "as §1"}},
  "data": [
    {"cell line": "UMC-11", "values": [
      {"measurement": "relative viability", "setting": "Tanzisertib + Pictilisib; first compound 0.08 µM", "result": 0.874},
      {"measurement": "relative viability", "setting": "Tanzisertib + Pictilisib; first compound 0.253 µM", "result": 0.85},
      {"measurement": "relative viability", "setting": "Tanzisertib + Pictilisib; first compound 0.8 µM", "result": 0.909},
      {"measurement": "relative viability", "setting": "Tanzisertib + Pictilisib; first compound 2.53 µM", "result": 0.798},
      {"measurement": "relative viability", "setting": "Tanzisertib + Pictilisib; first compound 8 µM", "result": 0.711},
      {"measurement": "relative viability", "setting": "[1]; first compound 0.1265 µM", "result": 0.608},
      {"measurement": "relative viability", "setting": "[1]; first compound 0.4 µM", "result": 0.604},
      {"measurement": "relative viability", "setting": "[1]; first compound 1.265 µM", "result": 0.481},
      {"measurement": "relative viability", "setting": "[1]; first compound 4 µM", "result": 0.324},
      {"measurement": "relative viability", "setting": "[2]; first compound 0.04 µM", "result": 1.08},
      {"measurement": "relative viability", "setting": "[2]; first compound 0.1265 µM", "result": 1.06},
      {"measurement": "relative viability", "setting": "[2]; first compound 0.4 µM", "result": 1.04},
      {"measurement": "relative viability", "setting": "[2]; first compound 1.265 µM", "result": 0.989},
      {"measurement": "relative viability", "setting": "[2]; first compound 4 µM", "result": 0.826},
      {"measurement": "relative viability", "setting": "Tanzisertib + Vorinostat; first compound 0.08 µM", "result": 0.41},
      {"measurement": "relative viability", "setting": "Tanzisertib + Vorinostat; first compound 0.253 µM", "result": 0.401},
      {"measurement": "relative viability", "setting": "Tanzisertib + Vorinostat; first compound 0.8 µM", "result": 0.438},
      {"measurement": "relative viability", "setting": "Tanzisertib + Vorinostat; first compound 2.53 µM", "result": 0.404},
      {"measurement": "relative viability", "setting": "Tanzisertib + Vorinostat; first compound 8 µM", "result": 0.388}
    ]}
  ]
}
